Measurements published in patent US5747545A, “Method of preventing NMDA receptor complex-mediated Neuronal damage” (priority 1995, dated 1998).
Entries after “also recorded” stand apart in the source; their conditions may differ.

Tests used:
[1] = tested on: NMDA receptor (rat cortical neurons in culture); assay: Digital fura-2 imaging of NMDA-evoked intracellular [Ca2+] in cultured cortical neurons; type: cell-based, rat (Sprague-Dawley); details: after 2 mM DTT; 3 min exposure to 100 μM SNOC; NMDA 50 μM; FIG. 5A, P<0.01
[2] = tested on: cortical neurons (neuronal survival)
Experimental: S-nitrosocysteine was added as a source of NO.cndot. to cerebrocortical cultures (Lei et al., (1992) Neuron 8:1087-1099; Stamler et al., (1992) Science 258:1898-1902).
Peroxynitrite leads to lipid peroxidation and massive oxidation of sulfhydryls (Radi et al., (1991) J. Biol. Chem. 266:4244-4250; Radi et al., (1991) Arch. Biochem. Biophys. 288:481-487).
Values are expressed as mean+s.e.m. (n=9). Statistical comparisons were performed by an analysis of variance followed by a Scheffe multiple comparison of means (*, P<0.01 compared to control; **, P<0.05 compared to control; .dagger., P<0.01 compared to nitroso compound+SOD/catalase).
Specifically, the data in FIG. 7 were generated using mixed neuronal and glial cortical cultures from neonatal rats, as described previously (Lei, et al., (1992) Neuron 8:1087-1099). In at least three separate experiments, triplicate cultures were incubated overnight in Earle's buffered saline solution (EBSS) containing various concentrations of SNOC, peroxynitrite, SOD, catalase, or glutamate. […] The culture fluid was assayed for […] (LDH) as an indicator of neuronal survival by measuring the absorbance at 450 nm (Koh et al., (1987) J. Neurosci. Meth. 20:83-90). The cultures were also scored for neuronal viability by cell counting, generally with 0.2% trypan blue, after fixation in 2.5% glutaraldehyde, as described above. Neurons from cultures grown on 15 mm diameter cover slips were counted in a masked fashion in ~30 microscopic fields at 200 x.

physchem = type: physicochemical; details: pH 7.4
[3] = tested on: NMDA antagonist (MK-801) binding to post-mortem human brain homogenates; details: Kornhuber et al. 1989; cited from earlier work
[4] = tested on: quisqualate (QUIS)-elicited current (rat retinal ganglion cells); assay: Whole-cell patch clamp of quisqualate-elicited current on rat retinal ganglion cells; type: cell-based, rat (Long-Evans); details: 12 μM memantine, 5 μM quisqualate
Excerpt: (§1) FIGS. 4A'-4B' depict evidence for open-channel block of NMDA-elicited whole-cell current by memantine (MEM) on rat retinal ganglion cells. […] A rapid application system was used to administer the drugs, and a fast washout method was used in the experiments shown in FIGS. 4A' and 4B'.
(§2) For retinal ganglion cell labeling, dissociation, and culture, we used techniques that have been detailed elsewhere (Leifer et al. (1984) Science 224:303-306). […] Two to six days later, the animals were killed by decapitation. Following enucleation, the retinas were dissociated with mild treatment with the enzyme papain. The retinal cells were than plated onto glass coverslips coated with poly-L-lysine in 35 mm tissue culture dishes. The growth medium was Eagle's minimum essential medium supplemented with 0.7% (w/v) methylcellulose, 0.3% (w/v) glucose, 2 mM glutamine, 5% (v/v) rat serum, and 1 μg/ml gentamicin. Retinal ganglion cells were identified by the presence of the retrogradely transported dye granular blue.
(§3) Whole-cell and single-channel recordings of rat retinal ganglion cells were performed as described in detail elsewhere (Hamill et al., 1981; Lipton and Tauck, 1987). […]

[5] = tested on: retinal ganglion cells (NMDA receptor-mediated neurotoxicity); assay: Retinal ganglion cell survival assay (endogenous glutamate-related toxin, high calcium, low magnesium medium); type: cell-based, rat (Long-Evans); details: FIG. 3'
Experimental: To test amantadine derivatives for their ability to prevent neurotoxicity, neuronal cell death may be assayed as follows. […] Two to 6 days later, the animals are sacrificed by decapitation and enucleated, and the retinas quickly removed. The retinas are dissociated by mild treatment with the enzyme papain and cultured in Eagle's minimum essential medium (MEM, catalog #1090, Gibco, Grand Island, N.Y.) supplemented with 0.7% (w/v) methylcellulose, 0.3% (w/v) glucose, 2 mM glutamine, 1 μg/ml gentamicin, and 5% (v/v) rat serum, as described in Lipton et al., J. Physiol. 385:361, 1987. The cells are plated onto 75 mm^2 glass coverslips coated with poly-L-lysine in 35 mm tissue culture dishes. […]
To perform the viability test, the cell-culture medium is exchanged for physiological saline containing 0.0005% fluorescein diacetate for 15-45 s, and then cells are rinsed in saline. […] In contrast, the viable retinal ganglion cells display not only a blue color in the UV light but also a yellow-green fluorescence with filters appropriate for fluorescein. Thus, the use of two exchangeable fluorescence filter sets permits the rapid determination of viable ganglion cells in the cultures. […]

NMDA receptor channels = details: Bormann 1989; cited from earlier work
[6] = tested on: NMDA receptor (rat retinal ganglion cells); assay: Whole-cell patch clamp of NMDA-elicited current on rat retinal ganglion cells; type: cell-based, rat (Long-Evans)
Excerpt: as §1, §2
Whole-cell and single-channel recordings of rat retinal ganglion cells were performed as described in detail elsewhere (Hamill et al., 1981; Lipton and Tauck, 1987). The neurons were continuously superfused in a chamber at 27°-29° C. with a bath solution composed of (in mM) NaCl, 137.6; KCl, 5.8; CaCl2, 2.5; HEPES, 5; glucose, 22.2; with phenol red, 0.001% (v/v); glycine, 1 μM; pH 7.2; and no added magnesium. The patch pipettes were filled with an intracellular solution containing (in mM) CsCl, 120; tetraethylammonium chloride, 20; HEPES, 10; EGTA, 2.25; CaCl2, 1; and MgCl2, 2; and sometimes with 3 mM Mg-ATP to minimize rundown in prolonged recordings (pH 7.2). […]. Solution changes could be achieved rapidly, within 50-100 msec, by moving the array of constantly flowing pipette tips relative to the cell with a micromanipulator driver. A control pipette containing bath solution and 1 μM TTX was used to wash out NMDA-inducedcurrent rapidly.

[7] = tested on: kainate (KA)-elicited current (rat retinal ganglion cells); assay: Whole-cell patch clamp of kainate-elicited current on rat retinal ganglion cells; type: cell-based, rat (Long-Evans); details: 12 μM memantine, 50 μM kainate
Excerpt: as §1, §2, §3

Structure (SMILES)	Effect on NMDA-evoked [Ca2+]i response (SNOC experiment) [1]	Killing of cortical neurons [2]	Maximally-lethal concentration [2]	half-life (physchem)	Inhibition of binding of MK-801 [3]	Effect on quisqualate-elicited current [4]	minimal effective concentration ([5]; Rattus norvegicus, compared to control, read-out: Concentration at which increased neuronal survival reached statistical significance)	Effect on retinal ganglion cell death from endogenous glutamate-related toxin ([5]; memantine 1-25 μM, 16-20 h, 37° C.)	Block of NMDA receptor channels (NMDA receptor channels)	Kinetics for blocking/unblocking NMDA receptor-mediated response [6]	Effect of memantine when administered alone ([6]; 12 μM memantine alone, -60 mV, FIG. 4b' left)	Effect on NMDA-induced current ([6]; 12 μM memantine, 200 μM NMDA, -50 and +50 mV)	Inhibition of response to NMDA ([6]; 12 μM memantine, 200 μM NMDA, -60 mV, n=17)	Effect on kainate-elicited current [7]
N[C@@H](CSN=O)C(=O)O [SNOC, S-nitrosocysteine]	recovered only slightly	dose-dependent killing of cortical neurons	200 µM	~30 s	–	–	–	–	–	–	–	–	–	–
CC12CC3CC(C)(C1)CC(N)(C3)C2 [memantine, 1-amino-3,5-dimethyl adamantine]	–	–	–	–	inhibits the binding of an NMDA antagonist (MK-801)	did not affect the current	6 µM	prevented retinal ganglion cell death from the endogenous glutamate-related toxin in a dose-dependent manner; also recorded: blocks neuronal cell death mediated by excessive stimulation of the NMDA receptor	blocks NMDA receptor channels	relatively rapid	lack of effect	blocking effect	90%	did not affect the current
